In US9884842B2, “Combretastatin analogs” (The Board of Trustees of the University of Arkansas, priority 2013, dated 2018):

How the values were obtained:
SF-295 = experiment: NCI growth inhibition and cytotoxicity screen, CNS Cancer panel; assay type: cell-based; conditions: Homo sapiens, SF-295, Table 1, cell line SF-2395 (CNS Cancer); for CC50: read-out: LC50 (the source's name)
SN12C = experiment: NCI growth inhibition and cytotoxicity screen, Renal Cancer panel; conditions: Homo sapiens; for CC50: read-out: LC50
MOLT-4 = experiment: NCI growth inhibition and cytotoxicity screen, Leukemia panel; conditions: Homo sapiens; for GI50: MOLT-4; for CC50: MOLT-4, read-out: LC50
NCI-H322M = experiment: NCI growth inhibition and cytotoxicity screen, Lung Cancer panel; conditions: Homo sapiens; for CC50: read-out: LC50
OVCAR-8 = experiment: NCI growth inhibition and cytotoxicity screen, Ovarian Cancer panel; conditions: Homo sapiens; for GI50: OVCAR-8; for CC50: OVCAR-8, read-out: LC50
COLO 205 = experiment: NCI growth inhibition and cytotoxicity screen, Colon Cancer panel; conditions: Homo sapiens; for GI50: COLO 205; for CC50: COLO 205, read-out: LC50
ACHN = experiment: NCI growth inhibition and cytotoxicity screen, Renal Cancer panel; conditions: Homo sapiens; for CC50: read-out: LC50
SW-620 = experiment: NCI growth inhibition and cytotoxicity screen, Colon Cancer panel; conditions: Homo sapiens; for GI50: SW-620; for CC50: SW-620, read-out: LC50
NCI-H23 = experiment: NCI growth inhibition and cytotoxicity screen, Lung Cancer panel; conditions: Homo sapiens; for GI50: NCI-H23; for CC50: NCI-H23, read-out: LC50
OVCAR-4 = experiment: NCI growth inhibition and cytotoxicity screen, Ovarian Cancer panel; conditions: Homo sapiens; for GI50: OVCAR-4; for CC50: OVCAR-4, read-out: LC50
MDA-MB-468 = experiment: cells; conditions: Homo sapiens; for GI50: MDA-MB-468; for CC50: MDA-MB-468, read-out: LC50
HCT-116 = experiment: NCI growth inhibition and cytotoxicity screen, Colon Cancer panel; conditions: Homo sapiens; for GI50: HCT-116; for CC50: HCT-116, read-out: LC50
HCC-2998 = experiment: as above; conditions: Homo sapiens; for GI50: HCC 2998; for CC50: HCC 2998, read-out: LC50
RXF 393 = experiment: NCI growth inhibition and cytotoxicity screen, Renal Cancer panel; conditions: Homo sapiens; for GI50: RXF 393; for CC50: RXF 393, read-out: LC50
SR = experiment: NCI growth inhibition and cytotoxicity screen, Leukemia panel; conditions: Homo sapiens; for CC50: read-out: LC50
MDA-MB-435 = experiment: NCI growth inhibition and cytotoxicity screen, Melanoma panel; conditions: Homo sapiens; for GI50: MDA-MB-435; for CC50: MDA-MB-435, read-out: LC50
HCT-15 = experiment: NCI growth inhibition and cytotoxicity screen, Colon Cancer panel; conditions: Homo sapiens; for GI50: HCT-15; for CC50: HCT-15, read-out: LC50
DU-145 = experiment: NCI growth inhibition and cytotoxicity screen, Prostate Cancer panel; conditions: Homo sapiens; for GI50: DU-145; for CC50: DU-145, read-out: LC50
SK-MEL-5 = experiment: NCI growth inhibition and cytotoxicity screen, Melanoma panel; conditions: Homo sapiens; for GI50: SK-MEL-5; for CC50: SK-MEL-5, read-out: LC50
CCRF-CEM = experiment: NCI growth inhibition and cytotoxicity screen, Leukemia panel; conditions: Homo sapiens; for CC50: read-out: LC50
PC-3 = experiment: NCI growth inhibition and cytotoxicity screen, Prostate Cancer panel; conditions: Homo sapiens; for GI50: PC-3; for CC50: PC-3, read-out: LC50
UO-31 = experiment: NCI growth inhibition and cytotoxicity screen, Renal Cancer panel; conditions: Homo sapiens; for GI50: UO-31; for CC50: UO-31, read-out: LC50
NCI-H522 = experiment: NCI growth inhibition and cytotoxicity screen, Lung Cancer panel; assay type: cell-based; conditions: Homo sapiens, NCI-H522, Table 1, cell line NCIH522 (Lung Cancer); for CC50: read-out: LC50 (the source's name)
MDA-MB-231/ATCC = experiment: NCI growth inhibition and cytotoxicity screen, Breast Cancer panel; conditions: Homo sapiens; for GI50: MDA-MB-231; for CC50: MDA-MB-231, read-out: LC50
MALME-3M = experiment: NCI growth inhibition and cytotoxicity screen, Melanoma panel; conditions: Homo sapiens; for CC50: read-out: LC50
HOP-62 = experiment: NCI growth inhibition and cytotoxicity screen, Lung Cancer panel; conditions: Homo sapiens; for GI50: HOP-62; for CC50: HOP-62, read-out: LC50
HL-60(TB) = experiment: cells; conditions: Homo sapiens; for GI50: HL-60; for CC50: HL-60, read-out: LC50
HS 578T = experiment: NCI growth inhibition and cytotoxicity screen, Breast Cancer panel; conditions: Homo sapiens; for CC50: read-out: LC50

Compound: COc1cc(/C=C/c2cc3ccccc3o2)cc(OC)c1OC [Formula (I)(c)]
- GI50 (SF-295): 0.35 nM
- CC50 (SF-295): > 100000 nM
- GI50 (SN12C): 4.09 nM
- CC50 (SN12C): > 100000 nM
- GI50 (MOLT-4): 0.85 nM
- CC50 (MOLT-4): > 100000 nM
- GI50 (NCI-H322M): 15.9 nM
- CC50 (NCI-H322M): > 100000 nM
- GI50 (OVCAR-8): 2.05 nM
- CC50 (OVCAR-8): > 100000 nM
- GI50 (COLO 205): 0.4 nM
- CC50 (COLO 205): 19500 nM
- GI50 (ACHN): 0.86 nM
- CC50 (ACHN): > 100000 nM
- GI50 (SW-620): 0.44 nM
- CC50 (SW-620): > 100000 nM
- GI50 (NCI-H23): 3.09 nM
- CC50 (NCI-H23): > 100000 nM
- GI50 (OVCAR-4): 1.15 nM
- CC50 (OVCAR-4): > 100000 nM
- GI50 (MDA-MB-468): 0.66 nM
- CC50 (MDA-MB-468): > 100000 nM
- GI50 (HCT-116): 0.522 nM
- CC50 (HCT-116): 77000 nM
- GI50 (HCC-2998): 3.34 nM
- CC50 (HCC-2998): > 100000 nM
- GI50 (RXF 393): 0.32 nM
- CC50 (RXF 393): > 100000 nM
- GI50 (SR): 0.09 nM
- CC50 (SR): > 100000 nM
- GI50 (MDA-MB-435): 0.078 nM
- CC50 (MDA-MB-435): > 100000 nM
- GI50 (HCT-15): 0.4 nM
- CC50 (HCT-15): > 100000 nM
- GI50 (DU-145): 1.86 nM
- CC50 (DU-145): > 100000 nM
- GI50 (SK-MEL-5): 0.34 nM
- CC50 (SK-MEL-5): 42000 nM
- GI50 (CCRF-CEM): 0.42 nM
- CC50 (CCRF-CEM): > 100000 nM
- GI50 (PC-3): 0.52 nM
- CC50 (PC-3): > 100000 nM
- GI50 (UO-31): 1.15 nM
- CC50 (UO-31): > 100000 nM
- GI50 (NCI-H522): 0.43 nM
- CC50 (NCI-H522): > 100000 nM
- GI50 (MDA-MB-231/ATCC): 1.17 nM
- CC50 (MDA-MB-231/ATCC): > 100000 nM
- GI50 (MALME-3M): 0.41 nM
- CC50 (MALME-3M): 86300 nM
- GI50 (HOP-62): 0.77 nM
- CC50 (HOP-62): > 100000 nM
- GI50 (HL-60(TB)): 0.35 nM
- CC50 (HL-60(TB)): > 100000 nM
- GI50 (HS 578T): 0.49 nM
- CC50 (HS 578T): > 100000 nM

Compound: COc1cc(/C=C/c2nc3ccccc3s2)cc(OC)c1OC [Formula (I)(d)]
- GI50 (SF-295): 0.07 nM
- CC50 (SF-295): > 100000 nM
- GI50 (SN12C): 9.37 nM
- CC50 (SN12C): > 100000 nM
- GI50 (MOLT-4): 1.28 nM
- CC50 (MOLT-4): > 100000 nM
- CC50 (NCI-H322M): > 100000 nM
- GI50 (OVCAR-8): 0.39 nM
- CC50 (OVCAR-8): > 100000 nM
- GI50 (COLO 205): 0.049 nM
- CC50 (COLO 205): 24600 nM
- GI50 (ACHN): 1.22 nM
- CC50 (ACHN): > 100000 nM
- GI50 (SW-620): 0.43 nM
- CC50 (SW-620): > 100000 nM
- GI50 (NCI-H23): 0.72 nM
- CC50 (NCI-H23): > 100000 nM
- GI50 (OVCAR-4): 1.81 nM
- CC50 (OVCAR-4): > 100000 nM
- GI50 (MDA-MB-468): 0.82 nM
- CC50 (MDA-MB-468): > 100000 nM
- GI50 (HCT-116): 0.0072 nM
- CC50 (HCT-116): > 100000 nM
- GI50 (HCC-2998): 2.23 nM
- CC50 (HCC-2998): 63500 nM
- GI50 (RXF 393): 0.14 nM
- CC50 (RXF 393): 97600 nM
- GI50 (SR): 0.036 nM
- CC50 (SR): > 100000 nM
- GI50 (MDA-MB-435): 0.024 nM
- CC50 (MDA-MB-435): 44600 nM
- GI50 (HCT-15): 0.063 nM
- CC50 (HCT-15): > 100000 nM
- GI50 (DU-145): 0.27 nM
- CC50 (DU-145): > 100000 nM
- GI50 (SK-MEL-5): 0.047 nM
- CC50 (SK-MEL-5): 34000 nM
- GI50 (CCRF-CEM): 0.13 nM
- CC50 (CCRF-CEM): > 100000 nM
- GI50 (PC-3): 0.13 nM
- CC50 (PC-3): > 100000 nM
- GI50 (UO-31): 0.37 nM
- CC50 (UO-31): > 100000 nM
- GI50 (NCI-H522): 0.16 nM
- CC50 (NCI-H522): 47900 nM
- GI50 (MDA-MB-231/ATCC): 0.71 nM
- CC50 (MDA-MB-231/ATCC): > 100000 nM
- GI50 (MALME-3M): 0.07 nM
- CC50 (MALME-3M): 51600 nM
- GI50 (HOP-62): 0.39 nM
- CC50 (HOP-62): 81500 nM
- GI50 (HL-60(TB)): 0.037 nM
- CC50 (HL-60(TB)): > 100000 nM
- GI50 (HS 578T): 0.17 nM
- CC50 (HS 578T): > 100000 nM

Compound: COc1cc(/C(C#N)=C\c2cc3ccccc3s2)cc(OC)c1OC [Formula (I)(a)]
- GI50 (SN12C): < 10 nM
- CC50 (SN12C): > 100000 nM
- GI50 (MOLT-4): < 10 nM
- CC50 (MOLT-4): > 100000 nM
- GI50 (NCI-H322M): 18.3 nM
- CC50 (NCI-H322M): > 100000 nM
- GI50 (OVCAR-8): < 10 nM
- CC50 (OVCAR-8): > 100000 nM
- GI50 (COLO 205): < 10 nM
- CC50 (COLO 205): 250 nM
- GI50 (ACHN): < 10 nM
- CC50 (ACHN): > 100000 nM
- GI50 (SW-620): < 10 nM
- CC50 (SW-620): > 100000 nM
- GI50 (NCI-H23): < 10 nM
- CC50 (NCI-H23): > 100000 nM
- GI50 (OVCAR-4): < 10 nM
- CC50 (OVCAR-4): > 100000 nM
- GI50 (MDA-MB-468): < 10 nM
- CC50 (MDA-MB-468): > 100000 nM
- GI50 (HCT-116): < 10 nM
- CC50 (HCT-116): > 100000 nM
- GI50 (HCC-2998): 19.2 nM
- CC50 (HCC-2998): > 100000 nM
- GI50 (RXF 393): < 10 nM
- CC50 (RXF 393): > 100000 nM
- GI50 (SR): < 10 nM
- CC50 (SR): > 100000 nM
- GI50 (MDA-MB-435): < 10 nM
- CC50 (MDA-MB-435): > 100000 nM
- GI50 (HCT-15): < 10 nM
- CC50 (HCT-15): > 100000 nM
- GI50 (DU-145): < 10 nM
- CC50 (DU-145): > 100000 nM
- GI50 (SK-MEL-5): < 10 nM
- CC50 (SK-MEL-5): > 100000 nM
- GI50 (CCRF-CEM): < 10 nM
- CC50 (CCRF-CEM): > 100000 nM
- GI50 (PC-3): < 10 nM
- CC50 (PC-3): > 100000 nM
- GI50 (UO-31): < 10 nM
- CC50 (UO-31): > 100000 nM
- GI50 (MDA-MB-231/ATCC): < 10 nM
- CC50 (MDA-MB-231/ATCC): > 100000 nM
- GI50 (MALME-3M): < 10 nM
- CC50 (MALME-3M): > 100000 nM
- GI50 (HOP-62): < 10 nM
- CC50 (HOP-62): > 100000 nM
- GI50 (HL-60(TB)): < 10 nM
- CC50 (HL-60(TB)): > 100000 nM
- GI50 (HS 578T): < 10 nM
- CC50 (HS 578T): > 100000 nM
